# Laboratory results taken from publication PMC3991330 (Structure(London, England:1993), 2014).
# What was measured:
# TIPΔD2 [1] = molecular target: T1, TIPΔD2 (Methanopyrus kandleri, UniProt Q8TZC3, DEL143-290); assay: native nanoelectrospray ionization mass spectrometry; type: binding; conditions: tightly bound; co-purified from E. coli host
# TIPΔD2 [2] = molecular target: T1, TIPΔD2; assay: malachite green phosphate release ATPase assay; type: biochemical
# mkTIP49 = mkTIP49 (Methanopyrus kandleri, UniProt Q8TZC3); assay: malachite green phosphate release ATPase assay; type: biochemical; conditions: optimum 75-80 °C
# native MS = molecular target: the molecule itself; assay: native MS
molecule,measurement,setting,value
Nc1ncnc2c1ncn2[C@@H]1O[C@H](COP(=O)(O)OP(=O)(O)O)[C@@H](O)[C@H]1O [ADP],native nanoelectrospray ionization mass spectrometry,TIPΔD2 [1],Both full-length mkTIP49 and TIPΔD2 contain a tightly bound ADP cofactor
Nc1ncnc2c1ncn2[C@@H]1O[C@H](COP(=O)(O)OP(=O)(O)OP(=O)(O)O)[C@@H](O)[C@H]1O [ATP],malachite green phosphate release ATPase assay (PiColorLock ALS),TIPΔD2 [2],deletion of D2 had a dramatic stimulating effect on the catalytic activity of mkTIP49
same,malachite green phosphate release ATPase assay (PiColorLock ALS),mkTIP49,we measured the intrinsic ATPase activity of mkTIP49 and mutants thereof
"isolated mkTIP49 D2 insertion domain (TIPins, residues 124–290) (domain or fragment, Methanopyrus kandleri, UniProt Q8TZC3 124-290, looked up) VEFTETREVIEGKVESLEIERAKHPLSPYMEVPSGAIIELKTQDDHRRFKVPEEIAIQLVQAGVREGDVIQIDVESGHVTKLGRAKDALEEEEEELLGVHAVELPEGPVQKKKEIKRVVTLHDLDMANVRAGRLLGFREEEITDEIRQKVDERVQKMVDEGEASLVP",stoichiometry N,native MS,2
"Methanopyrus kandleri TIP49 protein (mkTIP49), wild type, full length (enzyme, UniProt Q8TZC3 1-455, looked up) MVEIKEIGEVSTEETSPGAHSHITGLGLDENLKAKPVGDGLVGQEEAREAAGIVVEMVKQGRRAGHGLLLVGPPGTGKTAIAYGIARELGEDVPFVSISGSEIYGTNLSKTEFLQQAIRRAIGVEFTETREVIEGKVESLEIERAKHPLSPYMEVPSGAIIELKTQDDHRRFKVPEEIAIQLVQAGVREGDVIQIDVESGHVTKLGRAKDALEEEEEELLGVHAVELPEGPVQKKKEIKRVVTLHDLDMANVRAGRLLGFREEEITDEIRQKVDERVQKMVDEGEASLVPGVLFIDEAHMLDIEAFAFLNRSLEEEIAPILVMATNRAMAKVRGTDEEAPHGIPGDLLDRMLIARTRPFERHEIHEIIGIRARVQDIQLTDEAHEYLTDLGEEKSIRYATRLLEPARIVAEKEGSEVVEKKHVERVEEVFTDVSDSVEYMERMRRELPVMKYLTG",stoichiometry N,native MS,12
